Test results: paper PMC3448668, “Insulin-Like Growth Factor-I E-Peptide Activity Is Dependent on the IGF-I Receptor” (PLoS ONE, 2012)

Columns and labels:
Format in all cases: cell-based, mouse
[1] = tested on: ERK1/2 phosphorylation (MAPK signaling) in C2C12 cells; assay: ERK1/2 phosphorylation immunoblot after synthetic E-peptide treatment
Protocol: (§1) C2C12 (ATCC, Manassas, VA) cells were maintained in growth media (DMEM containing, 10% fetal bovine serum, and gentamicin). For signaling experiments, 2×10^4 cells were seeded in 6-well plates in growth media and allowed to attach and grow overnight. The next day, cells were starved overnight in growth media without serum. On the third day, cells were treated with synthetic E-peptides and/or recombinant human IGF-I (Gemini Bio-Products West Sacramento, CA) for the time periods indicated in figures, and the cells were processed for immunoblotting as described below. For IGF-IR inhibition, 100 nM NVPAEW541 [47] diluted in DMSO or DMSO only was added to starved cells 90 minutes before and during treatment with synthetic peptides.
(§2) Signaling pathway activation was determined by immunoblotting.

[2] = tested on: C2C12 cells; assay: Transwell cell migration assay; settings: C2C12 trans-well, 5 hours, PD 50 µM, NVP 100 nM; for Effect of inhibitor on EB induced migration: EB 100 nM
Protocol: E-peptide effects on cell migration were tested using a 24-well Transwell (8.0 µm pore size) plate assay (Corning Inc., Lowell, MA). C2C12 cells (2×10^4) were seeded in the upper chambers in serum-free media, and synthetic E-peptides in serum-free media were placed in the bottom chambers. Cells were allowed to migrate for 5 hours. Non-migrated cells remaining in the upper chamber were removed from the transwell membranes with Q-tips and migrated cells were fixed with 4% formaldehyde and stained with DAPI. The transwell membranes were mounted onto slides, and imaged at 10× using above-mentioned microscopy and analysis software. For MAPK signaling or IGF-IR inhibition, PD (50 µM) or NVP (100 nM) was added to both chambers at the start of the experiment.

[3] = tested on: C2C12 cells; assay: BrdU cell proliferation assay (plate and slide); settings: for Effect of inhibitor on IGF-I induced proliferation: C2C12 BrdU plate assay, IGF-I 10 nM, PD 50 µM, NVP 100 nM
Protocol: Proliferation was measured using a 5-bromo-2P-deoxyuridine (BrdU) plate and slide assays (Roche, Indianapolis, IN). For the plate assay, 5×10^3 C2C12 cells were seeded in 96-well plates. Cells were starved for 6 hours, and treated with synthetic E-peptides or recombinant IGF-I overnight. BrdU was added for incorporation for 2 hours before cell lysis and BrdU staining. For MAPK inhibition, a MEK inhibitor was added to the media (PD 098059, Sigma, 50 µM). For IGF-IR inhibition, 100 nM NVPAEW541 was added to the media. The slide assay was done as above, except with 2×10^4 C2C12 cells in 24-well plates on glass cover slips. Cells were stained with an antibody to BrdU and with DAPI (VectorLabs, Burlingame, CA) to visualize nuclei. Images were acquired using a Leica DMR epifluorescence microscope using OpenLab imaging software (Improvision, PerkinElmer, Waltham, MA).

[4] = tested on: Akt phosphorylation in C2C12 cells; assay: Akt phosphorylation immunoblot; settings: C2C12, 20 min; EA 1 µM, EB 10 nM, IGF-I 10 nM
Protocol: as §1, §2

| Molecule | Effect of IGF-IR inhibitor on ERK1/2 phosphorylation in EA, EB and IGF-I treated cells ([1]; C2C12, NVP 100 nM 90 min before and during 20 min stimulation, EA 1 µM, EB 10 nM, IGF-I 10 nM, vs DMSO, N = 3) | Effect of IGF-IR inhibitor on ERK1/2 phosphorylation in NoTx cells ([1]; C2C12, NVP 100 nM vs DMSO, no stimulation) | Effect of inhibitor on EB induced migration [2] | Effect of inhibitor on cell migration in the absence of E-peptides [2] | Effect of inhibitor on IGF-I induced proliferation [3] | P-ERK1/2 response (in words), without inhibitor ([1]; C2C12, 20 min, EA 1 µM, EB 10 nM, IGF-I 10 nM, DMSO) | P-Akt response (in words) [4] | Proliferation by BrdU positivity on slides (in words) ([3]; C2C12 on cover slips, EA and Scr 100 nM, EB and IGF 10 nM, N = 5 slides) |
| --- | --- | --- | --- | --- | --- | --- | --- | --- |
| Nc1ncnc2c1c(-c1cccc(OCc3ccccc3)c1)cn2[C@H]1C[C@@H](CN2CCC2)C1 [NVP, NVPAEW541] | significantly reduced the ERK1/2 phosphorylation | no change in ERK1/2 phosphorylation | significantly decreased EB induced migration | not affected | significantly decreased IGF-I induced proliferation | – | – | – |
| IGF-I: recombinant human IGF-I (Gemini Bio-Products), positive control | – | – | – | – | – | increase in both P-Akt and P-ERK1/2 | increase in both P-Akt and P-ERK1/2 | increased C2C12 proliferation |
| COc1cccc(-c2cc(=O)c3ccccc3o2)c1N [PD, PD 098059] | – | – | decrease in EB migration that did not reach significance | not affected | significantly decreased IGF-I induced proliferation | – | – | – |
